Source: ChEMBL document CHEMBL5537109, “Natural products as potential lead compounds to develop new antiviral drugs over the past decade” (Eur J Med Chem, 2023)
Numbered stars: 1 amine (or outer) side, 2 acyl side, 3 side chain; on linkers, the order of the positions; unused ones are H or OH. Bridge positions count the residues as written; N and C are the ends. Square brackets hold non-standard residues; d marks the D form. Peptide text beside a SMILES is read from it. X2 = CCCCCCCCC[C@@H](CCCC(=O)[*:1])O[*:2]; d(aThr) = C[C@@H](O)[C@@H](N)C(=O)O; aIle = CC[C@@H](C)[C@H](N)C(=O)O

Legend:
[1] = Cytotoxicity against human C8166 cells assessed as inhibition of cell growth incubated for 48 hrs by MTT assay; type: toxicity, cell-based
[2] = tested on: Human immunodeficiency virus 1; assay: Anti-HIV activity against HIV-1 IIIB infected in human C8166 cells assessed as inhibition of virus-induced cytopathic effect by MTT assay; type: functional, organism-based; details: Human immunodeficiency virus 1, IIIB
[3] = Cytotoxicity against human C8166 cells assessed as inhibition of cell growth by MTT assay; type: toxicity, cell-based
[4] = tested on: Human immunodeficiency virus 1; assay: Antiviral activity against HIV-1 3B harboring reverse transcriptase infected in human C8166 cells assessed as protection against virus-induced cytopathic effect incubated for 5 days by MTT assay; type: functional, organism-based; details: Human immunodeficiency virus 1, 3B, C8166, 120 h
[5] = molecular target: Human immunodeficiency virus type 1 reverse transcriptase (Human immunodeficiency virus 1, UniProt Q72547); assay: Inhibition of HIV1 reverse transcriptase
[6] = tested on: Human immunodeficiency virus 1; assay: Antiviral activity against HIV-1 3B harboring reverse transcriptase infected in human MT4 cells assessed as protection against virus-induced cytopathic effect incubated for 5 days by MTT assay; type: functional, organism-based; details: Human immunodeficiency virus 1, 3B, MT4, 120 h
[7] = tested on: RAW264.7; assay: Cytotoxicity against mouse RAW264.7 cells assessed as reduction in cell viability incubated for 24 hrs by CCK-8 method; type: functional
[8] = tested on: Human immunodeficiency virus 1; assay: Antiviral activity against HIV-1 harboring reverse transcriptase infected in human MT4 cells assessed as reduction in virus-induced cytopathic effect; type: functional, organism-based; details: Human immunodeficiency virus 1, MT4
[9] = Cytotoxicity against African green monkey Vero cells assessed as reduction in cell viability measured after 72 hrs by MTS assay; type: toxicity, cell-based; details: chlorocebus sabaeus
[10] = tested on: Huh-7; assay: Cytotoxicity against human Huh-7 cells assessed as reduction in cell viability incubated for 72 hrs by MTT assay; type: functional
[11] = tested on: HEK-293T; assay: Cytotoxicity against human HEK293T cells assessed as cell growth inhibition measured after 72 hrs by MTT assay; type: functional
[12] = tested on: SARS-CoV-2; assay: Antiviral activity against SARS-CoV-2 infected in African green monkey Vero cells assessed as reduction in viral replication; type: functional, organism-based; details: Severe acute respiratory syndrome coronavirus 2, Vero
[13] = Cytotoxicity against African green monkey Vero E6 cells assessed as reduction in cell growth incubated for 24 hrs by WST-8 assay; type: toxicity, cell-based, Vero C1008; details: chlorocebus sabaeus
[14] = tested on: Human immunodeficiency virus 1; assay: Antiviral activity against HIV-1 3B infected in human MT4 cells assessed as inhibition of viral replication incubated for 5 days by MTT assay; type: functional, organism-based; details: Human immunodeficiency virus 1, 3B, MT4, 120 h
[15] = Inhibition of Influenza A virus A/California/04/2009 (H1N1) N-terminal his tagged domain of PA endonuclease expressed in Escherichia coli BL21 (DE3) cells
[16] = tested on: Influenza A virus; assay: Antiviral activity against influenza A virus H1N1(A/PR/8/34) infected in MDCK cells assessed as inhibition of cytopathic effect incubated for 48 hrs by MTT assay; type: functional, organism-based
[17] = Cytotoxicity against MDCK cells assessed as inhibition of cell growth incubated for 48 hrs by MTT assay; type: toxicity, cell-based, Canis lupus familiaris; details: dog
[18] = tested on: Influenza A virus; assay: Antiviral activity against influenza A virus A/Hong Kong/1/68 (HK1, H3N2) infected in dog MDCK cells assessed as cytopathic effect; type: functional, organism-based
[19] = tested on: Influenza A virus; assay: Antiviral activity against influenza A virus H5N1 infected in dog MDCK cells assessed as viral growth inhibition; type: functional, organism-based
[20] = tested on: SARS-CoV-2; assay: Antiviral activity against SARS-CoV-2 NVDBB-2220 infected in African green monkey Vero cells assessed as reduction in virus-induced cytopathic effect incubated for 5 days by microscopic analysis; type: functional, organism-based; details: Severe acute respiratory syndrome coronavirus 2, NVDBB-2220, Vero, 120 h
[21] = tested on: Human alphaherpesvirus 1; assay: Antiviral activity against HSV-1 assessed as inhibition of viral growth; type: functional, organism-based
[22] = tested on: Human immunodeficiency virus 1; assay: Antiviral activity against wild-type HIV-1 NL4-3 infected in human MT4 cells assessed as inhibition of viral growth by measuring reduction in p24 antigen level incubated for 3 to 7 days by ELISA analysis; type: functional, organism-based; details: Human immunodeficiency virus 1, NL4-3, MT4
[23] = tested on: Human alphaherpesvirus 1; assay: Antiviral activity against HSV-1 KOS infected in African green monkey Vero cells assessed as reduction in virus induced cytopathogenicity by plaque reduction assay; type: functional, organism-based; details: Human alphaherpesvirus 1, KOS
[24] = Cytotoxicity against African green monkey Vero cells assessed as reduction in cell viability measured after 72 hrs by MTT assay; type: toxicity, cell-based; details: chlorocebus sabaeus

COc1cc(OC)c([N+](=O)[O-])c2c1-c1c3c(c(OC)c4c1[C@@H](C2)NCC4)OCO3
CC50 at 48 h [1]: 28.7 µM
EC50 [2]: 1.93 µM

C=CC(C)(C)c1cc2cc(C[C@@H](O)C(C)(C)O)c(O)cc2oc1=O
CC50 [3]: > 200 µM
EC50 [4]: 0.68 µM

CCCCCC(O)/C=C/C=C\CCCCCC[C@@]1(O)C[C@H](C(=O)OC)[C@H](C(C)=O)O1 (stereo partly drawn)
CC50 [3]: > 200 µM
EC50 [4]: 0.08 µM

COc1cc2oc(CO)cc(=O)c2c(O)c1CCC(C)(C)O
CC50 [3]: > 200 µM
EC50 [4]: 0.09 µM

C=C1[C@H]2O[C@@H](OC)[C@H]3[C@@H]1[C@@H]1O[C@@H]1[C@@]3(CO)O2
IC50 [5]: 7.23 µM
CC50 [3]: > 200 µM

C=CC(C)(C)c1cc2cc(CC(=O)C(C)C)c(OC)cc2oc1=O
EC50 [6]: 0.12 µM
CC50 [3]: > 200 µM

C=C(C)[C@@]1(OC(=O)c2ccccc2)[C@H](OC(C)=O)[C@@H]2[C@H](OC(C)=O)[C@@]3(C)O[C@@]4([C@@H]3O)[C@@H](OC(=O)c3ccccc3)[C@@H](C)C[C@H]4[C@@]2(O)[C@H](C)[C@@H]1OC(C)=O
CC50 [7]: > 200 µM
EC50 [8]: 0.095 µM

O[C@H]1[C@H]2c3cc4c(cc3CN3CCC(=C[C@@H]1O)[C@H]23)OCO4 [LYCORINE]
CC50 at 72 h [9]: > 1000 µM
CC50 [10]: 0.834 µM
CC50 [11]: 1.04 µM
EC50 [12]: 0.439 µM

CC[C@H]1CN2CCc3cc(OC)c(OC)cc3[C@@H]2C[C@@H]1C[C@H]1NCCc2cc(O)c(OC)cc21 [CEPHAELINE]
CC50 at 72 h [9]: 46.3 µM
CC50 [10]: 3.03 µM
CC50 [11]: 2 µM
EC50 [12]: 0.0123 µM

C[C@H]1CC(=O)[C@@H]2CCCN(C)CCCC(=O)/C(=N\O)C[C@@H]2C1
CC50 at 48 h [1]: > 200 µM
EC50 [2]: 52.9 µg/mL

CC[C@H]1CN2CCc3cc(OC)c(OC)cc3[C@@H]2C[C@@H]1C[C@H]1NCCc2cc(OC)c(OC)cc21 [EMETINE]
CC50 at 72 h [9]: 2.17 µM
CC50 [10]: 33.4 µM
CC50 [11]: 37.8 µM
EC50 [12]: 7.71 µM

O=c1cc(-c2ccccc2)oc2cc(O)c(O)c(O)c12 [BAICALEIN]
CC50 at 24 h [13]: > 200 µM

C=CC(CO)[C@@H]1C[C@H]2c3[nH]c4ccccc4c3CCN2C(=O)[C@@H]1CO (stereo partly drawn)
CC50 at 48 h [1]: > 200 µM
EC50 [14]: 0.23 µM

O=C(O[C@H]1[C@H](Oc2ccc(O)cc2C(=O)O)O[C@H](CO)[C@@H](O)[C@@H]1OC(=O)c1cc(O)c(O)c(O)c1)c1cc(O)c(O)c(O)c1
IC50 [15]: 30.7 µM
EC50 [16]: 30.7 µM
CC50 at 48 h [17]: > 1000 µM
EC50 [18]: 28.2 µM
IC50 [19]: 24.6 µM

COc1cc(C)c(Cc2cc3c([nH]c4ccccc43)c3c2OC(C)(C)C=C3)c2c1[nH]c1ccccc12
IC50 [5]: 0.0186 µM
CC50 at 48 h [1]: > 200 µM

COc1cc(OC)c2c(c1OC)C[C@H]1NCCc3cc4c(c-2c31)OCO4
CC50 at 48 h [1]: 43.6 µM
EC50 [2]: 5.8 µM

C=CC(CO)[C@@H]1C[C@H]2c3[nH]c4ccccc4c3CCN2C(=O)[C@H]1CO (stereo partly drawn)
EC50 [14]: 0.06 µM

O=C(OC[C@H]1O[C@@H](Oc2ccc(O)cc2C(=O)O)[C@H](O)[C@@H](OC(=O)c2cc(O)c(O)c(O)c2)[C@@H]1O)c1cc(O)c(O)c(O)c1
IC50 [15]: 29.2 µM
EC50 [16]: 20.2 µM
CC50 at 48 h [17]: 964 µM
EC50 [18]: 33.3 µM
IC50 [19]: 11.6 µM

C[C@H]1[C@H](OC(=O)CCC(=O)O)O[C@@H]2O[C@@]3(C)CC[C@H]4[C@H](C)CC[C@@H]1[C@@]24OO3 [ARTESUNATE]
EC50 [20]: 13 µM

O=C1c2c(O)cc(O)cc2O[C@H](c2cc(O)c(O)c(O)c2)[C@H]1O [AMPELOPSIN]
CC50 at 24 h [13]: > 200 µM

CC(C)=CCc1c(O)cc2oc(CO)cc(=O)c2c1O
CC50 [3]: > 200 µM
EC50 [4]: 0.67 µM

C/C=C1/C[N+]23CCc4c([nH]c5ccccc45)[C@@H]2C[C@H]1C3C(=O)[O-] (stereo partly drawn)
EC50 [21]: 1.09 µg/mL

COc1c2c(cc3oc(CO)cc(=O)c13)OC(C)(C)C=C2
CC50 [3]: > 200 µM
EC50 [4]: 9.72 µM

C=C(C)[C@@]1(OC(=O)c2ccccc2)[C@H](OC(C)=O)[C@@H]2[C@H](OC(C)=O)[C@@]3(C)O[C@@]4([C@@H]3OC(C)=O)[C@@H](OC(=O)c3ccccc3)[C@@H](C)C[C@H]4[C@@]2(O)[C@H](C)[C@@H]1OC(C)=O
CC50 [7]: > 200 µM
EC50 [8]: 0.18 µM

O=C(OC[C@H]1O[C@@H](Oc2ccc(O)cc2C(=O)O)[C@H](OC(=O)c2cc(O)c(O)c(O)c2)[C@@H](O)[C@@H]1O)c1cc(O)c(O)c(O)c1
IC50 [15]: 27.6 µM
EC50 [16]: 32.1 µM
CC50 at 48 h [17]: 835 µM
EC50 [18]: 31.2 µM
IC50 [19]: 21.1 µM

COc1cc2oc(CO)cc(=O)c2c(OC)c1CC=C(C)C
CC50 [3]: > 200 µM
EC50 [4]: 1.32 µM

COc1cc2oc(CO)cc(=O)c2c(O)c1CC=C(C)C
CC50 [3]: > 200 µM
EC50 [4]: 0.96 µM

C=C(C)[C@@]1(OC(C)=O)[C@H](OC(C)=O)[C@@H]2[C@H](OC(C)=O)[C@@]3(C)O[C@@]4([C@@H]3O)[C@@H](OC(=O)c3ccccc3)[C@@H](C)C[C@H]4[C@@]2(O)[C@H](C)[C@@H]1OC(=O)c1ccccc1
CC50 [7]: > 200 µM
EC50 [8]: 0.21 µM

C=C1C(=O)O[C@@]23[C@H]1CC[C@@H](C)[C@@H]2CC[C@@]1(C)O[C@@H]31 [ARTEANNUIN B]
EC50 [20]: 10.3 µM

CCCCCCCCC[C@H]1CCCC(=O)N[C@H]([C@@H](C)O)C(=O)N[C@H](C)C(=O)N2CCC[C@H]2C(=O)N[C@@H](CCC(N)=O)C(=O)N[C@H](Cc2ccc(O)cc2)C(=O)N[C@@H]([C@H](C)CC)C(=O)O1 ([d(aThr)][dA]PQ[dY][aIle]; linker N-C via X2)
EC50 [21]: 14 µM

O=C1C=C2[C@H]3C=CC[C@]2(O1)[C@H]1CCCCN31
EC50 [22]: 45 µM

C=C(C)[C@]12C[C@@H](COC(C)=O)[C@@]34OC5(O[C@@H]1[C@@H]3[C@@H]1O[C@]1(CO)[C@@H](O)[C@@]1(O)[C@H]4[C@H]([C@H](C)[C@@H]1OC(=O)c1ccccc1)[C@H](C)C[C@H](OC(=O)c1ccccc1)[C@H](OC(=O)c1ccccc1)CCC[C@H]5O)O2
EC50 [22]: 0.00025 µM

COc1cccc2c1-c1c3c(c(OC)c4cc[n+]([O-])c(c14)C2=O)OCO3
CC50 at 48 h [1]: 56.6 µM
EC50 [2]: 2.18 µM

O=C1C=C2C[C@H](O[C@H]3C[C@@]45OC(=O)C=C4C[C@@H]3N3CCCC[C@H]35)[C@@H]3C[C@@]2(O1)[C@H]1CCCN31
EC50 [22]: 120 µM

C=CC(C)(C)c1cc2cc3c(c(CC=C(C)C)c2oc1=O)O[C@H](C(C)(C)O)C3
CC50 [3]: > 200 µM

C=CC(C)(C)c1cc2cc3c(cc2oc1=O)O[C@H](C(C)(C)O)[C@H]3O
CC50 [3]: > 200 µM
EC50 [4]: 0.17 µM

O=c1c(O)c(-c2cc(O)c(O)c(O)c2)oc2cc(O)cc(O)c12 [MYRICETIN]
CC50 at 24 h [13]: > 200 µM

C=CC(C)(C)c1cc2cc(C[C@@H](OCC)C(C)(C)O)c(OC)cc2oc1=O
EC50 [6]: 0.42 µM
CC50 [3]: > 200 µM

COc1ccc2c(c1)N=C1c3cc(-c4nccc5c4[nH]c4cc(OC)ccc45)c(C)n3CCC12O (racemic)
EC50 [23]: 2.12 µM
CC50 at 72 h [24]: 74.2 µM

C=CC(C)(C)c1cc2cc(C[C@@H](OC)C(C)(C)O)c(OC)cc2oc1=O
EC50 [6]: 0.33 µM
CC50 [3]: > 200 µM
